According to the NIST ThermoML archive (doi:10.1021/acs.jced.7b01006):

Assay: xn = mol fraction of the nth substance listed
Conditions: 100 kPa, Liquid; for electrical conductivity: Alternating current cell with electrodes; for viscosity: Falling or rolling sphere viscometry; for mass density: Vibrating tube method

CCCCn1cc[n+](C)c1C.N#C[S-] [1-butyl-2,3-dimethylimidazolium thiocyanate] + CC#N
Conditions | electrical conductivity [S/m] | mass density [kg/m3] | viscosity [mPa·s]
288.15 K, x1 = 0.1001 | 4.72 | 888.99 | 16.94
288.15 K, x1 = 0.2004 | 4.01 | 951.31 | 38.93
288.15 K, x1 = 0.2999 | 3.35 | 995.07 | 67.12
288.15 K, x1 = 0.4003 | 1.19 | 1026.63 | 102.7
288.15 K, x1 = 0.5001 | 0.765 | 1038.63 | 145.4
288.15 K, x1 = 0.5999 | 0.599 | 1050.73 | 193.9
288.15 K, x1 = 0.6999 | 0.429 | 1062.95 | 249.1
288.15 K, x1 = 0.8002 | 0.358 | 1068.26 | 310.4
288.15 K, x1 = 0.9002 | 0.24 | 1075.99 | 377.8
288.15 K, x1 = 1 | 0.106 | 1084.2 | 452.7
293.15 K, x1 = 0.1001 | 5.01 | 885.19 | 11.74
293.15 K, x1 = 0.2004 | 4.34 | 948.02 | 27.08
293.15 K, x1 = 0.2999 | 3.71 | 991.9 | 46.77
293.15 K, x1 = 0.4003 | 1.45 | 1024 | 71.58
293.15 K, x1 = 0.5001 | 0.919 | 1036.16 | 100.9
293.15 K, x1 = 0.5999 | 0.728 | 1048.16 | 134.8
293.15 K, x1 = 0.6999 | 0.531 | 1060.42 | 172.9
293.15 K, x1 = 0.8002 | 0.458 | 1066.14 | 214.7
293.15 K, x1 = 0.9002 | 0.316 | 1073.56 | 260.4
293.15 K, x1 = 1 | 0.153 | 1081.11 | 311.3
298.15 K, x1 = 0.1001 | 5.31 | 881.36 | 8.229
298.15 K, x1 = 0.2004 | 4.69 | 944.6 | 18.85
298.15 K, x1 = 0.2999 | 4.05 | 988.57 | 32.07
298.15 K, x1 = 0.4003 | 1.71 | 1021.27 | 49.45
298.15 K, x1 = 0.5001 | 1.12 | 1033.49 | 69.9
298.15 K, x1 = 0.5999 | 0.891 | 1045.66 | 93.7
298.15 K, x1 = 0.6999 | 0.654 | 1057.9 | 119.9
298.15 K, x1 = 0.8002 | 0.57 | 1063.84 | 148.9
298.15 K, x1 = 0.9002 | 0.39 | 1071.37 | 181
298.15 K, x1 = 1 | 0.217 | 1078.2 | 218
303.15 K, x1 = 0.1001 | 5.61 | 877.5 | 5.854
303.15 K, x1 = 0.2004 | 5.03 | 941.34 | 12.95
303.15 K, x1 = 0.2999 | 4.42 | 985.32 | 22.58
303.15 K, x1 = 0.4003 | 2.01 | 1018.59 | 34.51
303.15 K, x1 = 0.5001 | 1.32 | 1030.79 | 49.24
303.15 K, x1 = 0.5999 | 1.06 | 1043.17 | 66.62
303.15 K, x1 = 0.6999 | 0.795 | 1055.17 | 85.89
303.15 K, x1 = 0.8002 | 0.697 | 1061.75 | 106.9
303.15 K, x1 = 0.9002 | 0.497 | 1068.94 | 130.3
303.15 K, x1 = 1 | 0.293 | 1075.18 | 157.9
308.15 K, x1 = 0.1001 | 5.92 | 873.64 | 4.393
308.15 K, x1 = 0.2004 | 5.36 | 938.14 | 9.306
308.15 K, x1 = 0.2999 | 4.79 | 982.11 | 16.16
308.15 K, x1 = 0.4003 | 2.34 | 1015.92 | 24.59
308.15 K, x1 = 0.5001 | 1.56 | 1028.06 | 34.95
308.15 K, x1 = 0.5999 | 1.26 | 1040.79 | 47.89
308.15 K, x1 = 0.6999 | 0.96 | 1052.69 | 62.82
308.15 K, x1 = 0.8002 | 0.853 | 1059.56 | 78.98
308.15 K, x1 = 0.9002 | 0.61 | 1066.57 | 97.33
308.15 K, x1 = 1 | 0.386 | 1072.16 | 118.9
313.15 K, x1 = 0.1001 | 6.23 | 869.75 | 3.257
313.15 K, x1 = 0.2004 | 5.7 | 934.72 | 6.633
313.15 K, x1 = 0.2999 | 5.15 | 978.72 | 11.34
313.15 K, x1 = 0.4003 | 2.67 | 1013.21 | 17.39
313.15 K, x1 = 0.5001 | 1.81 | 1025.43 | 25.45
313.15 K, x1 = 0.5999 | 1.48 | 1038.3 | 35.42
313.15 K, x1 = 0.6999 | 1.16 | 1050.1 | 46.81
313.15 K, x1 = 0.8002 | 1.03 | 1057.26 | 59.49
313.15 K, x1 = 0.9002 | 0.749 | 1064.3 | 73.79
313.15 K, x1 = 1 | 0.496 | 1069.15 | 90.46
318.15 K, x1 = 0.1001 | 6.53 | 865.95 | 2.458
318.15 K, x1 = 0.2004 | 6.03 | 931.41 | 4.722
318.15 K, x1 = 0.2999 | 5.52 | 975.35 | 8.162
318.15 K, x1 = 0.4003 | 3.03 | 1010.57 | 12.95
318.15 K, x1 = 0.5001 | 2.07 | 1022.69 | 18.62
318.15 K, x1 = 0.5999 | 1.73 | 1035.83 | 26.33
318.15 K, x1 = 0.6999 | 1.38 | 1047.6 | 35.55
318.15 K, x1 = 0.8002 | 1.23 | 1055.02 | 46.09
318.15 K, x1 = 0.9002 | 0.913 | 1061.87 | 57.94
318.15 K, x1 = 1 | 0.627 | 1066.16 | 72.04
323.15 K, x1 = 0.1001 | 6.83 | 862.09 | 1.882
323.15 K, x1 = 0.2004 | 6.37 | 927.98 | 3.578
323.15 K, x1 = 0.2999 | 5.89 | 972.17 | 5.904
323.15 K, x1 = 0.4003 | 3.4 | 1007.9 | 9.491
323.15 K, x1 = 0.5001 | 2.37 | 1020.14 | 13.67
323.15 K, x1 = 0.5999 | 2.01 | 1033.37 | 19.96
323.15 K, x1 = 0.6999 | 1.63 | 1045.21 | 27.68
323.15 K, x1 = 0.8002 | 1.46 | 1052.82 | 36.89
323.15 K, x1 = 0.9002 | 1.1 | 1059.62 | 46.83
323.15 K, x1 = 1 | 0.774 | 1063.2 | 57.11
